In patent US10105384B2, “Nucleic acids targeting TCTP for use in the treatment of chemo- or hormone-resistant cancers” (INSTITUT NATIONAL DE LA SANTE ET DE LA RECHERCHE MEDICALE …, priority 2010, dated 2018):
d = 2'-deoxy (DNA); r = 2'-OH (RNA)

Key:
Assay type in all cases: cell-based, human
PC-3 cells [1] = assay: MTT cell growth assay, PC-3 cells; conditions: for enhancement of docetaxel sensitivity: PC-3 cells, 50 nM docetaxel 24 h, MTT
Protocol: In brief, cells were seeded in each well of 12-well microtiter plates (30 000 to 50 000 cells per well) and allowed to attach overnight. To study the effect of TCTP downregulation on apoptosis induced by docetaxel, PC-3 cells were transiently transfected the day after seeding with 5 nM of TCTP siRNA for 48 h or 100 nM of TCTP ASO for 72 h. Cells were then treated with 50 nM of docetaxel and MTT assays were performed after 24 h. To assess the effect of TCTP downregulation on Hsp27 cytoprotection, LNCaP-Mock and -Hsp27 cells were transiently transfected the day after seeding with 5 nM of TCTP siRNA for 48 h. The down- or upregulation of TCTP effect on LNCaP and C4-2 cell viability was realized after transient transfections with 100 nM of TCTP ASO or 0.02 μg/μl of pDEST-TCTP for 72 h and 48 h respectively. Cells were then treated with 1 nM of docetaxel in serum-free media (mimics androgen withdrawal in vitro) and crystal violet assays were performed the day after. Each assay was performed in triplicate.
To assess the effect of TCTP down-regulation on CR cell growth, PC-3 cells were treated for 1 day with 5 nM TCTP siRNA or for 2 days with 100 nM TCTP ASO. At the end of the treatment, PC-3 cells were incubated with 50 nM of docetaxel. Growth rates of PC-3 cells were examined using the 3-(4,5-dimethylthiazol-2-yl)-2,5-diphenyltetrazolium bromide assay. […] The effect of the inhibition of TCTP on cell survival was analyzed in PC-3 after combined ASO and docetaxel-chemotherapy treatment. After 24 h of treatment with 50 nM of docetaxel, cell viability was determined using a MTT assay. The experiment was repeated in triplicate. *** differs from PC-3 transfected with control-siRNA (P50.001) using Statview software. […] The same effect has been observed with TCTP siRNA (SEQ ID NO: 3) and 5′-[…]-3′ (SEQ ID NO: 14) and 5′-[…]-3′ (SEQ ID NO: 15) ASOs.
(§1) PC3 cells were transfected with a TCTP siRNA of SEQ ID NO: 3. Cell proliferation and apoptosis were studied using respectively MTT (3-(4,5-dimethylthiazol-2-yl)-2,5-diphenyl tetrazolium bromure) assay and flow cytometry.
(§2) PC3 cells were transfected with a TCTP ASO of SEQ ID NO: 2. Cell proliferation and apoptosis were studied using respectively MTT assay and flow cytometry.

PC-3 cells [2] = assay: Flow cytometry of propidium iodide-stained nuclei (apoptosis, cell cycle), PC-3 cells
Protocol: Flow cytometry of propidium iodide-stained nuclei was performed as described previously (Rocchi et al., 2004, Cancer Res. 64:6595-602). In brief, PC-3 cells were plated at the density of 10^6 cells into 10 cm dishes in DMEM supplemented with 10% FCS. To assess the effect of TCTP inhibition on apoptosis and cell cycle, cells were treated the day after seeding with 5 nM of siRNA TCTP or control and 100 nM of ASO TCTP or scrambled control for 48 h. Cells were then treated with 50 nM of docetaxel. After 24 h, the cells were analyzed for relative DNA content on a dual laser flow cytometer (FACSCalibur, Becton Dickinson Biosciences, Le Pont de Claix, France). Each assay was performed in triplicate.
(§3) Flow cytometry was used to quantify the percentage of cells in each cell cycle phase three days after the siRNA treatment. After the treatment of PC-3 cells with 5 nM TCTP siRNA for 1 day, the fraction of cells undergoing apoptosis (sub-G1/G0 fraction) was 25% higher after treatment with 5 nM TCTP siRNA compared with scrambled control siRNA (**, P≤0.01; FIG. 6, upper panel). Using TCTP ASO treatment alone, we found an increase of 75% in sub-G0G1 fraction (***, P≤0.001; FIG. 6, middle and bottom panel), enhanced by the 50 nM docetaxel treatment (90% in sub-G0-G1 fraction, ***, P≤0.001). […] The fraction of PC-3 in S phase was 20 to 40% lower after TCTP siRNA or ASO treatments respectively compared to the scrambled controls (FIG. 6). […] The rate of apoptotic PC-3 cells after TCTP silencing with different ASO concentrations was explored with the Invitrogen countess (FIG. 6 and FIG. 7A). PC-3 cells were treated with 70, 100 or 200 nM of TCTP ASO or control. Cells were harvested 3 days after treatment and […] of trypan blue was added before analysis with Invitrogen Countess. […] Moreover, TCTP has been reported to interact with caspase-3, thereby inhibiting caspase-3 activation (Gnanasekar et al., 2009, Int J Oncol. 34:1241-6). In order to investigate the effect of TCTP silencing on caspase-3 cleavage and activity, PC-3 cells were treated daily with 100 nM TCTP or scrambled ASO for 2 days. Cells were harvested 2 days after and proteins were extracted for western blotting with a caspase-3 antibody that recognizes both full-length and cleaved caspase-3.
as §1, §2

TCTP = TCTP mRNA and protein expression tests in LNCaP and PC3 cells
Protocol: TCTP mRNA and protein expression tests were carried out in LNCaP and PC3 cells exposed to a TCTP ASO of SEQ ID NO: 2 or a TCTP siRNA of SEQ ID NO: 3.

caspase-3 = assay: Caspase-3 cleavage by western blot in PC-3 cells; conditions: not in control treated cells
Protocol: Western Blot analysis was performed as described previously (Rocchi et al., 2004, Cancer Res. 64:6595-602) with 1:5000 rabbit anti-Hsp27 polyclonal antibody (Assay Designs, Villeurbanne, France), 1:2000 rabbit TCTP polyclonal antibody (Abcam Inc., Cambridge, UK), 1:250 rabbit anti-MSL1v1 polyclonal antibody (Abcam Inc.), 1:500 mouse anti-ubiquitin monoclonal antibody (Santa Cruz Biotechnology Inc., Heidelberg, Germany) or 1:1000 rabbit anti-caspase-3 polyclonal antibody (Cell Signalling Technology Inc., Danvers, USA). Loading levels were normalized using 1:5000 rabbit anti-glyceraldehyde-3-phosphate dehydrogenase polyclonal (Abcam Inc.) or 1:2500 mouse anti-vinculine monoclonal antibodies (Sigma Chemical Co., St Louis, Mo., USA).
Flow cytometry was used to quantify the percentage of cells in each cell cycle phase three days after the siRNA treatment. After the treatment of PC-3 cells with 5 nM TCTP siRNA for 1 day, the fraction of cells undergoing apoptosis (sub-G1/G0 fraction) was 25% higher after treatment with 5 nM TCTP siRNA compared with scrambled control siRNA (**, P≤0.01; FIG. 6, upper panel). Using TCTP ASO treatment alone, we found an increase of 75% in sub-G0G1 fraction (***, P≤0.001; FIG. 6, middle and bottom panel), enhanced by the 50 nM docetaxel treatment (90% in sub-G0-G1 fraction, ***, P≤0.001). […]

PC-3 cells [3] = assay: Viability assay by Invitrogen Countess (trypan blue), PC-3 cells
Protocol: PC-3 cells were treated with 70, 100 or 200 nM of TCTP ASO or control. 3 days after, the cells were harvested, combined with 10 μl of trypan blue and counted with Invitrogen Countess. Viability, cell concentration and size were recorded for each sample following the manufacturer's instructions.
as §3

Row | Substance | enhancement of docetaxel sensitivity (PC-3 cells [1]) | decrease of proliferation of PC3 cells (PC-3 cells [1]; TCTP ASO, MTT assay (summary, FIG. 13)) | fraction of PC-3 in S phase lower than scrambled control (PC-3 cells [2]; ASO treatment) | increase in sub-G0-G1 fraction (PC-3 cells [2]; PC-3, TCTP ASO plus 50 nM docetaxel) | increase in sub-G0G1 fraction (PC-3 cells [2]; PC-3, TCTP ASO treatment alone) | increase of the percentage of apoptotic cells (PC-3 cells [2]; TCTP ASO, PC3, flow cytometry (summary, FIG. 13)) | expression of TCTP (mRNA and protein) (TCTP) | active cleaved caspase-3 fragments (17-20 kDa) (caspase-3) | rate of apoptotic cells (PC-3 cells [3]; PC-3, 70 nM ASO, three days after transfection) | rate of apoptotic cells (PC-3 cells [3]; PC-3, 100 nM ASO, three days after transfection) | rate of apoptotic cells (PC-3 cells [3]; PC-3, 200 nM ASO, three days after transfection) | reduction in PC-3 cell growth (PC-3 cells [1]; 5 nM siRNA alone, 4 days after treatment, compared to scrambled control) | decrease of proliferation of PC3 cells (PC-3 cells [1]; TCTP siRNA, MTT assay (summary, FIG. 12)) | fraction of cells undergoing apoptosis (sub-G1/G0 fraction) higher than scrambled control siRNA (PC-3 cells [2]; PC-3, 5 nM siRNA for 1 day) | increase of the percentage of apoptotic cells (PC-3 cells [2]; TCTP siRNA, PC3, flow cytometry (summary, FIG. 12)) | fraction of PC-3 in S phase lower than scrambled control (PC-3 cells [2]; siRNA treatment) | rate of apoptotic cells (PC-3 cells [3]; PC-3, TCTP siRNA)
1 | 5′-ACCAATGAGCGAGTCATCAA-3′ (phosphorothioate backbone, further chemistry not given here) [ASO10] | up to 25% | 58% | 40% | 90% | 75% | 70% | decreases in a significant manner | presence of active cleaved caspase-3 fragments | 100% | 200% | 300% |  |  |  |  |  | 
2 | 5′-AACCCGUCCGCGAUCUCCCdGdG-3′ (AACCCGUCCGCGAUCUCCCGG; siRNA; sugars from the 5' end r19 d2, backbone not given here) [TCTP siRNA, from Qiagen] | same effect |  |  |  |  |  | decreases in a significant manner | presence of active cleaved caspase-3 fragments |  |  |  | 55% | 48.1% | 25% | 25.8% | 20% | Same effects
